Results reported in patent publication US20240383908A1, “SYNTHESIS AND APPLICATION OF PHOSPHATASE DEGRADER” (HINOVA PHARMACEUTICALS INC., priority 2021, published 2024).
Where a name gives a salt, the structure may show the parent alone.

Legend:
SHP2 protein [1] = biological target: T1, SHP2 protein (Homo sapiens, UniProt Q06124); assay: Degradation activity on SHP2 protein in NCI-H358 cells (Western blot, DC50); type: cell-based; parameters: endogenous in cells; conditions: read-out: Degradation activity for differenct cell lines NCI-H358 (DC50)
T1 sequence (Q06124 1-593): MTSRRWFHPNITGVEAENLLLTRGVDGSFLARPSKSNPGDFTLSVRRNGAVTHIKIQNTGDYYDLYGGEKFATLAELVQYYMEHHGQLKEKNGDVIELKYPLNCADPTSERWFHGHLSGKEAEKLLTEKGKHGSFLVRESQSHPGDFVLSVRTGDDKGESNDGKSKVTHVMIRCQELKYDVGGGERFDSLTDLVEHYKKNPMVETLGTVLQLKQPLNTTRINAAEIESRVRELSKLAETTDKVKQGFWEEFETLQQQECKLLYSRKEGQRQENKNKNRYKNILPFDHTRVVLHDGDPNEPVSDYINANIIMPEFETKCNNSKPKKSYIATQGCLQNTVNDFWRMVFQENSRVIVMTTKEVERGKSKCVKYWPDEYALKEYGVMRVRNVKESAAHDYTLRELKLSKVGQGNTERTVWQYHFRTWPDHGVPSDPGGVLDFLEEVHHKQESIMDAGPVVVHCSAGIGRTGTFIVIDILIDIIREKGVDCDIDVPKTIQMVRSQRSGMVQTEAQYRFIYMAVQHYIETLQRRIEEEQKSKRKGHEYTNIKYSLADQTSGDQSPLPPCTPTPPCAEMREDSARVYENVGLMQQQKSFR
Method: (1) MV-411 cells were cultured in the cell culture medium, and then well-growing cells were selected and inoculated in a 12-well plate, with 1 mL/well and 1×10^6 cells/well. The plate was incubated overnight in a 5% CO2 cell incubator at 37° C.
(2) 10 mM storage solution of each drug was prepared using dimethylsulfoxide (DMSO). The stock solution was diluted gradually with DMSO before use, and then 1 μL of the compound solution was added to the cell culture well (to ensure that the DMSO concentration in the culture system was […]), so that the final drug concentration is 100 nM, 10 nM, 3 nM, 1 nM, 0.3 nM, and 0.1 nM. Two wells were set for each concentration. The plate was gently shaken and mixed. Additionally, negative control wells (containing an equal amount of DMSO) and positive control wells were included.
(3) After 24 hours of cultivation, the cells were lysed using RIPA cell lysate, and the proteins were extracted. The protein concentration was measured using a BCA assay kit. 5× concentrated protein buffer was loaded, heated at 100° C. for 5 min, and then the sample was stored at −20° C.
(4) For each well, 30 μg of protein was loaded to polyacrylamide gel for electrophoresis.
(5) The protein was transferred from polyacrylamide gel to PVDF membrane, and sealed at room temperature with 5% skimmed milk for 1 h, which was then incubated with the primary antibodies (Anti-SHP2 rabbit mAb and Anti-GAPDH rabbit mAb) at 4° C. overnight. The membrane was washed three times with TBST solution, 10 minutes for each time. After that, the membrane was incubated with the secondary antibodies (horseradish peroxidase labeled goat anti-rabbit IgG) at room temperature for 2 h, and then washed three times with TBST solution, 10 minutes for each time, followed by exposure.
(6) The images were analyzed with Image J grayscale, and the degradation ratio of protein bands in the test group was calculated, based on the negative control group (DMSO) (100%).
(7) Using the Dose-response-inhibition equation in the data processing software GraphPad Prism 8, the DC50 value was obtained (which represents the drug concentration corresponding to 50% degradation of the target protein).
Using similar methods and different cell lines, the degradation activity of the compound according to the present invention on SHP2 protein of different cell lines was tested under suitable culture conditions.

SHP2 protein [2] = biological target: T1, SHP2 protein; assay: Degradation activity on SHP2 protein in MIA Paca-2 cells (Western blot, DC50); type: cell-based; parameters: endogenous in cells; host or cells: MIA Paca-2 cells; conditions: read-out: Degradation activity for differenct cell lines MIA Paca-2 (DC50)
Summary of the method: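 Cells were treated 24 h at 37 °C with compound (0.1–100 nM final, 0.1% DMSO). SHP2 was measured by Western blot with GAPDH as loading control, densitometry normalized to DMSO (100%). DC50, the concentration giving 50% degradation, came from a dose-response fit.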

Compound | DC50 (SHP2 protein [1]) [nM] | DC50 (SHP2 protein [2]) [nM]
CC1(N)CCN(c2cnc(Sc3cccc(NC(=O)CCCCc4ccc(N5CCN(c6ccc(C(=O)NCc7ccc8c(c7)CN(C7CCC(=O)NC7=O)C8=O)nn6)CC5)cc4)c3)cn2)CC1 (stereo not drawn) [Compound 244] | < 100 | < 100
CC(CCCCCCCC(=O)Nc1cccc(Sc2cnc(N3CCC(C)(N)CC3)cn2)c1)N1CC=C(c2ccc(C(=O)NCc3ccc4c(c3)CN(C3CCC(=O)NC3=O)C4=O)nc2)C(C)(C)C1 (stereo not drawn) [Compound 245] | < 100 | < 100
Cn1nc(C(=O)NCc2ccc3c(c2)CN(C2CCC(=O)NC2=O)C3=O)cc1C1=CCN(CCCCCCCCC(=O)Nc2cccc(Sc3cnc(N4CCC(C)(N)CC4)cn3)c2)CC1 (stereo not drawn) [Compound 246] | < 100 | < 100
CC1(N)CCN(c2cnc(Sc3cccc(NCc4ccc(CN5CCN(c6ccc(C(=O)NCc7ccc8c(c7)CN(C7CCC(=O)NC7=O)C8=O)nn6)CC5)cc4)c3)cn2)CC1 (stereo not drawn) [Compound 247] | 100 to 1000 | > 1000
CC1(N)CCN(c2cnc(Sc3cccc(NC(=O)CCN4CCN(c5ccc(C(=O)NCc6ccc7c(c6)CN(C6CCC(=O)NC6=O)C7=O)nn5)CC4)c3)cn2)CC1 (stereo not drawn) [Compound 248] | < 100 | < 100
C[C@H]1CN(c2ccc(C(=O)NCc3ccc4c(c3)CN(C3CCC(=O)NC3=O)C4=O)nn2)CCN1CCCCCCCCC(=O)Nc1cccc(Sc2cnc(N3CCC(C)(N)CC3)cn2)c1 (stereo partly drawn) [Compound 249] | < 100 | < 100
C[C@H]1CN(CCCCCCCCC(=O)Nc2cccc(Sc3cnc(N4CCC(C)(N)CC4)cn3)c2)CCN1c1ccc(C(=O)NCc2ccc3c(c2)CN(C2CCC(=O)NC2=O)C3=O)nn1 (stereo partly drawn) [Compound 250] | < 100 | < 100
CC1(N)CCN(c2cnc(Sc3cccc(NC(=O)CCCCCCCCN4CCN(c5ccc(C(=O)NCc6ccc7c(c6)CN(C6CCC(=O)NC6=O)C7=O)nn5)C[C@@H]4CO)c3)cn2)CC1 (stereo partly drawn) [Compound 251] | < 100 | < 100
C[C@@H]1CN(c2ccc(C(=O)NCc3ccc4c(c3)CN(C3CCC(=O)NC3=O)C4=O)nn2)CCN1CCCCCCCCC(=O)Nc1cccc(Sc2cnc(N3CCC(C)(N)CC3)cn2)c1 (stereo partly drawn) [Compound 252] | < 100 | < 100
CC1(N)CCN(c2cnc(Sc3cccc(NC(=O)CCCCN4CCC(N5CCN(c6ccc(C(=O)NCc7ccc8c(c7)CN(C7CCC(=O)NC7=O)C8=O)nn6)CC5)C4)c3)cn2)CC1 (stereo not drawn) [Compound 266] | 100 to 1000 | > 1000
CC1(N)CCN(c2cnc(Sc3cccc(NC(=O)c4ccc(-c5ccc(N6CCN(c7ccc(C(=O)NCc8ccc9c(c8)CN(C8CCC(=O)NC8=O)C9=O)nc7)CC6)cc5)cc4)c3)cn2)CC1 (stereo not drawn) [Compound 343, 5-(4-(4′-((3-(([…])thio)phenyl)carbamoyl)-[1,1′-diphenyl]-4-yl)piperazin-1-yl)-N-((2-(2,6-dioxopiperidin-3-yl)-1-oxoisoindolin-5-yl)methyl)pyridinecarboxamide] | > 1000 | < 100
CC1(N)CCN(c2cnc(Sc3cccc(NC(=O)c4ccc5c(c4)CC(N4CCN(c6ccc(C(=O)NCc7ccc8c(c7)CN(C7CCC(=O)NC7=O)C8=O)nn6)CC4)C5)c3)cn2)CC1 (stereo not drawn) [Compound 344, […]] | > 1000 | < 100
CC1(N)CCN(c2cnc(Sc3cccc(NC(=O)c4csc(N5CCC(N6CC=C(c7ccc(C(=O)NCc8ccc9c(c8)CN(C8CCC(=O)NC8=O)C9=O)nn7)CC6)CC5)n4)c3)cn2)CC1 (stereo not drawn) [Compound 357] | < 100 | < 100
CC1(N)CCN(c2cnc(Sc3cccc(NC(=O)c4ccc(N5CCC(N6CC=C(c7ncc(C(=O)NCc8ccc9c(c8)CN(C8CCC(=O)NC8=O)C9=O)cc7Cl)CC6)CC5)cc4)c3)cn2)CC1 (stereo not drawn) [Compound 365] | < 100 | 100 to 1000
CC1(N)CCN(c2cnc(Sc3cccc(NC(=O)c4ccc(N5CCC(N6CC=C(c7ncc(C(=O)NCc8ccc9c(c8)CN(C8CCC(=O)NC8=O)C9=O)cn7)CC6)CC5)cc4)c3)cn2)CC1 (stereo not drawn) [Compound 370] | < 100 | 100 to 1000
CC1(N)CCN(c2cnc(Sc3cccc(NC(=O)c4ccc(N5CCC(N6CC=C(c7cnc(C(=O)NCc8ccc9c(c8)CN(C8CCC(=O)NC8=O)C9=O)cn7)CC6)CC5)cc4)c3)cn2)CC1 (stereo not drawn) [Compound 371] | < 100 | 100 to 1000
NC1(CO)CCN(c2cnc(Sc3cccc(NC(=O)c4ccc(N5CCC(N6CC=C(c7ccc(C(=O)NCc8ccc9c(c8)CN(C8CCC(=O)NC8=O)C9=O)nn7)CC6)CC5)cc4)c3)cn2)CC1 (stereo not drawn) [Compound 375] | < 100 | > 1000
COc1cc(C2=CCN(C3CCN(c4ccc(C(=O)Nc5cccc(Sc6cnc(N7CCC(C)(N)CC7)cn6)c5)cc4)CC3)CC2)ccc1C(=O)NCc1ccc2c(c1)CN(C1CCC(=O)NC1=O)C2=O (stereo not drawn) [Compound 377] | < 100 | < 100
CC1(N)CCN(c2cnc(Sc3cccc(NC(=O)c4ccc(N5CCC(N6CCN(c7ccc(C(=O)NCc8ccc9c(c8)CN(C8CCC(=O)NC8=O)C9=O)nc7)CC6)CC5)cc4)c3)cn2)CC1 (stereo not drawn) [Compound 395] | < 100 | < 100
CC1(N)CCN(c2cnc(Sc3cccc(NC(=O)c4ccc(N5CCC(N6CCN(c7ccc(C(=O)NCc8ccc9c(c8)CN(C8CCC(=O)NC8=O)C9=O)nc7)CC6)CC5)c(F)c4)c3)cn2)CC1 (stereo not drawn) [Compound 396] | < 100 | < 100
CC1(N)CCN(c2cnc(Sc3cccc(NC(=O)c4ccc(N5CCC(N6CCN(c7ccc(C(=O)NCc8ccc9c(c8)CN(C8CCC(=O)NC8=O)C9=O)nn7)CC6)CC5)c(F)c4)c3)cn2)CC1 (stereo not drawn) [Compound 397] | < 100 | < 100
CC1(N)CCN(c2cnc(Sc3cccc(NC(=O)c4ccc(N5CCC(N6CC=C(c7ccc(C(=O)NCc8ccc9c(c8)CN(C8CCC(=O)NC8=O)C9=O)nc7Cl)CC6)CC5)cc4)c3)cn2)CC1 (stereo not drawn) [Compound 398] | < 100 | < 100
CC1(N)CCN(c2cnc(Sc3cccc(NC(=O)c4ccc(N5CCC(N6CC=C(c7cnc(C(=O)NCc8ccc9c(c8)CN(C8CCC(=O)NC8=O)C9=O)cc7Cl)CC6)CC5)cc4)c3)cn2)CC1 (stereo not drawn) [Compound 399] | < 100 | < 100
CC1(N)CCN(c2cnc(Sc3cccc(NC(=O)c4ccc(N5CCC(N6CC=C(c7cnc(C(=O)NCc8ccc9c(c8)CN(C8CCC(=O)NC8=O)C9=O)c(Cl)c7)CC6)CC5)cc4)c3)cn2)CC1 (stereo not drawn) [Compound 400] | < 100 | < 100
CC1(N)CCN(c2cnc(Sc3cccc(NC(=O)c4ccc(N5CCC(N6CC=C(c7ccc(C(=O)NCc8ccc9c(c8)CN(C8CCC(=O)NC8=O)C9=O)nc7)CC6)CC5)cc4F)c3)cn2)CC1 (stereo not drawn) [Compound 405] | < 100 | 100 to 1000
CC1(N)CCN(c2cnc(Sc3cccc(NC(=O)c4ccc(-c5ccc(N6CCC7(CC6)CC7C(=O)NCc6ccc7c(c6)CN(C6CCC(=O)NC6=O)C7=O)cc5)cc4)c3)cn2)CC1 (stereo not drawn) [Compound 406] | > 1000 | > 1000
CC1(N)CCN(c2cnc(Sc3cccc(NC(=O)c4ccc(N5CCC(N6CC=C(c7ccc(C(=O)NCc8ccc9c(c8)CN(C8CCC(=O)NC8=O)C9=O)nc7)CC6)C(F)C5)nc4)c3)cn2)CC1 (stereo not drawn) [Compound 409] | < 100 | < 100
